Results as given in patent US20130005733A1, “COMBINATION ANTI-CANCER THERAPY” (OSI Pharmaceuticals, LLC, priority 2010, published 2013).

Key:
[1] = tested on: Ovcar-5 cells; assay: Caspase 3/7 Glo apoptosis assay; type: cell-based, Human; details: 48 hrs after treatment, OSI-027 varying doses alone or with 5 uM OSI-906
Method: Measurement of apoptosis: […] Cell lines were seeded at a density of 3000 cells per well in a 96-well plate. 24 hours after plating cells were dosed with varying concentrations of drug, either as a single agent or in combination. […] The caspase 3/7 activity was normalized to cell number per well, using a parallel plate treated with Cell Titer Glo (Promega Corporation, Madison, WI). Signal for each well was normalized using the following formula: Caspase 3/7 Glo luminescence units/Cell Titer Glo fraction of DMSO control. All graphs were generated using PRISM® software (Graphpad Software, San Diego, Calif.). […] A theoretical curve was calculated for combined inhibition using the equation: Ebliss=EA+EB−EA*EB, where EA and EB are the fractional inhibitions obtained by drug A alone and drug B alone at specific concentrations. […] If the experimentally measured fractional inhibition was less than Ebliss the combination was said to be synergistic. If the experimentally measured fractional inhibition was greater than Ebliss the combination was said to be antagonistic. For dose response curves, the bliss additivity was calculated for varying doses of drug A when combined with a constant dose of drug B. This allowed an assessment as to whether drug B affected the potency of drug A or shifted its intrinsic activity. […]

[2] = tested on: pPRAS40 (T246) in MDAH2774; assay: Western blot of phospho-PRAS40; type: cell-based, Human; details: 300 nM each agent, 2 hours
Method: (§1) Cell extracts were prepared by detergent lysis (50 mM Tris-HCl, pH 8.0, 150 mM NaCl, 1% NP-40, 0.5% sodium deoxycholate, 0.1% SDS, containing protease inhibitor (P8340, Sigma, St. Louis, Mo.) and phosphatase inhibitor (P5726, Sigma, St. Louis, Mo.) cocktails. The soluble protein concentration was determined by micro-BSA assay (Pierce, Rockford, Ill.). Pixel density was determined using AlphaEaseFC software (Alpha Innotech, San Leandro, Calif.). Protein immunodetection was performed by electrophoretic transfer of SDS-PAGE separated proteins to nitrocellulose, incubation with antibody, and chemiluminescent second step detection (PicoWest; Pierce, Rockford, Ill.). The antibodies included: 4E-BP1, p-4E-BP1(T37/46), PRAS40, and pPRAS40 ([…]). Antibodies were obtained from Cell Signaling Technology, Inc. (Danvers, Mass.). […] The media was removed, cells were washed two times with PBS, and cells were lysed as previously described.

[3] = tested on: p-4E-BP1(T37/46); assay: Western blot of phospho-4E-BP1; type: cell-based, Human; details: 300 nM each agent; 2 hours
Method: as §1

[4] = tested on: H460 NSCLC xenograft; assay: Tumor growth inhibition in vivo, xenograft; details: single agent
Method: Evaluation of tumor growth inhibition in vivo: Evaluation of tumor growth inhibition in vivo was conducted at OSI facilities with the approval of the Institutional Animal Care and Use Committee (IACUC) in an American Association for Accreditation of Laboratory Animal Care (AAALAC) accredited vivarium and in accordance with the Institute of Laboratory Animal Research (Guide for the Care and Use of Laboratory Animals, NIH, Bethesda, Md., USA). For this study, female athymic nude nu/nu CD-1 mice (6-8 wks, 20-28 g, Charles River Laboratories, Wilmington, Mass., USA) were allowed to acclimate for a minimum of one week prior to initiation of the study. To evaluate tumor growth inhibition, cells were harvested from cell culture flasks during exponential cell growth, washed twice with sterile PBS, counted and resuspended in PBS to a suitable concentration before subcutaneous implantation on the right flank of nu/nu CD-1 mice. Tumors were established to 200±50 mm^3 in size before randomization into treatment groups of 8 mice each. […]
where Tt=median tumor volume of treated at time t; T0=median tumor volume of treated at time 0; Ct=median tumor volume of control at time t; and C0=median tumor volume of control at time 0. The average TGI over the dosing period was then calculated and reported. […]

[5] = tested on: Igrov1; assay: Cell Titer Glo proliferation assay, ovarian cell line panel; type: cell-based, Human; details: Igrov1, single agent, cell viability at 72 hours
Method: Cell lines: Human cancer cell lines were purchased from the American Type Culture Collection (ATCC). The cell lines Ovcar-3, MDAH2774, Caov3, lgrov-1, and MDA-MB-231 were grown in media as prescribed by the ATCC, containing 10% FCS. HNSCC 1483, HNSCC 1386, HNSCC 1186 were a gift from Memorial Sloan Kettering and were cultured in 1:1 DMEM: Hams F12 with 10% FCS. Ovcar-4, Ovcar-5, and Ovcar-8 were obtained from the NCI and were grown in RPMI with 10% FCS. Measurement of proliferation: Inhibition of proliferation was measured using the Cell Titer Glo Assay (Promega Corporation, Madison, WI). Cell lines were seeded at a density of 3000 cells per well in a 96-well plate. 24 hours after plating cells were dosed with varying concentrations of drug, either as a single agent or in combination. […] Inhibition of proliferation, relative to vehicle-treated controls was expressed as a fraction of 1 and graphed using PRISM® software (Graphpad Software, San Diego, Calif.).

[6] = tested on: IR phosphorylation in Ovcar-3 ovarian carcinoma cells; assay: Phospho-RTK antibody array (Proteome Profiler); type: cell-based, Human; details: Ovcar-3 (KRAS wt); 3 uM each agent; relative to DMSO
Excerpt: (§2) Measurement of phosphorylated receptor tyrosine kinases: A commercially available membrane-based antibody array (Proteome Profiler Array, R&D Systems, Minneapolis, Minn.) was used to simultaneously co-immunoprecipitate 42 different receptor tyrosine kinases (RTKs) in duplicate and measure specific phospho-epitopes on each. The phospho-epitopes were detected by chemiluminescence, quantitated based on pixel density for each pair of spots and expressed relative to vehicle-treated controls. Pixel density was determined using AlphaEaseFC software (Alpha Innotech, San Leandro, Calif.).

[7] = tested on: IGF-1R phosphorylation in MDAH2774 ovarian carcinoma cells; assay: Phospho-RTK antibody array (Proteome Profiler); type: cell-based, Human; details: MDAH2774 (KRAS mutant); 3 uM each agent; 2 hour treatment
Excerpt: as §2

[8] = tested on: IGF-1R phosphorylation in H460 lung carcinoma cells; assay: Phospho-RTK antibody array (Proteome Profiler); type: cell-based, Human; details: 3 uM, relative to DMSO
Excerpt: as §2

[9] = tested on: IR phosphorylation in MDAH2774 ovarian carcinoma cells; assay: Phospho-RTK antibody array (Proteome Profiler); type: cell-based, Human; details: MDAH2774 (KRAS mutant); 3 uM each agent; 2 hour treatment
Excerpt: as §2

[10] = tested on: Ovcar3; assay: Cell Titer Glo proliferation assay, ovarian cell line panel; type: cell-based, Human; details: Ovcar3, single agent, cell viability at 72 hours
Method: (§3) Cell lines: Human cancer cell lines were purchased from the American Type Culture Collection (ATCC). The cell lines Ovcar-3, MDAH2774, Caov3, lgrov-1, and MDA-MB-231 were grown in media as prescribed by the ATCC, containing 10% FCS. HNSCC 1483, HNSCC 1386, HNSCC 1186 were a gift from Memorial Sloan Kettering and were cultured in 1:1 DMEM: Hams F12 with 10% FCS. Ovcar-4, Ovcar-5, and Ovcar-8 were obtained from the NCI and were grown in RPMI with 10% FCS. Measurement of proliferation: Inhibition of proliferation was measured using the Cell Titer Glo Assay (Promega Corporation, Madison, WI). Cell lines were seeded at a density of 3000 cells per well in a 96-well plate. 24 hours after plating cells were dosed with varying concentrations of drug, either as a single agent or in combination. […] Inhibition of proliferation, relative to vehicle-treated controls was expressed as a fraction of 1 and graphed using PRISM® software (Graphpad Software, San Diego, Calif.). Analysis of Synergy: The Bliss additivism model was used to classify the effect of combining OSI-027 and OSI-906 as additive, synergistic or antagonistic. A theoretical curve was calculated for combined inhibition using the equation: Ebliss=EA+EB−EA*EB, where EA and EB are the fractional inhibitions obtained by drug A alone and drug B alone at specific concentrations. Here, Ebliss is the fractional inhibition that would be expected if the combination of the two drugs was exactly additive. If the experimentally measured fractional inhibition was less than Ebliss the combination was said to be synergistic. If the experimentally measured fractional inhibition was greater than Ebliss the combination was said to be antagonistic. For dose response curves, the bliss additivity was calculated for varying doses of drug A when combined with a constant dose of drug B. This allowed an assessment as to whether drug B affected the potency of drug A or shifted its intrinsic activity. All plots were generated using Graphpad Prism software.

[11] = tested on: Ovcar-5; assay: as above; type: cell-based, Human; details: Ovcar-5 (KRAS mutant), single agent, cell viability at 72 hours
Method: as §3

[12] = tested on: MDAH2774; assay: as above; type: cell-based, Human; details: MDAH2774 (KRAS mutant), single agent, cell viability at 72 hours
Method: as §3

Compound | induction of apoptosis (caspase 3/7 activity) [1] | inhibition of phosphor-PRAS40 [2] | phosphorylation of 4E-BP1 [3] | tumor growth inhibition (TGI) ([4]; OSI-027 50 mg/kg oral daily for 14 days) [%] | sensitivity of cell line (inhibition of proliferation) [5] | phosphorylation of IR [6] | phosphorylation of IGF-1R [7] | phosphorylation of IGF-1R [8] | phosphorylation of IR [9] | sensitivity of cell line (inhibition of proliferation) [10] | sensitivity of cell line (inhibition of proliferation) [11] | sensitivity of cell line (inhibition of proliferation) [12] | tumor growth inhibition (TGI) ([4]; OSI-906 60 mg/kg once-daily for 14 days) [%]
COc1cccc2cc(-c3nc([C@H]4CC[C@H](C(=O)O)CC4)n4ncnc(N)c34)[nH]c12 [OSI-027, trans-4-[4-amino-5-(7-methoxy-1H-indol-2-yl)imidazo[5,1-f][1,2,4]triazin-7-yl]cyclohexanecarboxylic acid] | did not significantly induce apoptosis | partial inhibition | reduced | 66 | most sensitive | hyperphosphorylated | increased | hyperphosphorylation of IGF-1R | increased | most sensitive | relatively insensitive | relatively insensitive | –
C[C@]1(O)C[C@@H](c2nc(-c3ccc4ccc(-c5ccccc5)nc4c3)c3c(N)nccn32)C1 [OSI-906, cis-3-[8-amino-1-(2-phenylquinolin-7-yl)-imidazo[1,5-a]pyrazin-3-yl]-1-methylcyclobutanol] | – | inhibits phosphor-PRAS40 to a greater degree | No significant decrease | – | among the least sensitive | fully attenuates phosphor-IR, below the basal level | reduced | – | reduced | among the least sensitive | most sensitive | most sensitive | 69
Nc1nccn2c1c(-c1cc3cccc(Cl)c3[nH]1)nc2[C@H]1CC[C@H](C(=O)O)CC1 [OXA-01] | – | – | – | – | – | – | – | increases p-IGF-1R to a greater degree than erlotinib | – | – | – | – | –
C#Cc1cccc(Nc2ncnc3cc(OCCOC)c(OCCOC)cc23)c1 [erlotinib, reference compound] | – | – | – | – | – | – | – | hyperphosphorylation of IGF-1R | – | – | – | – | –
